Measurements: PMC6340938, “Three Novel ACE Inhibitory Peptides Isolated From Ginkgo biloba Seeds: Purification, Inhibitory Kinetic and Mechanism” (Frontiers in Pharmacology, 2019)
Read-outs that look alike come from different tables or passages of the source. Each block holds one molecule with its values, some of them ahead of it. Where no end group is shown, it is not given here.

How the values were obtained:
[1] = target: T1, angiotensin converting enzyme (ACE) (Homo sapiens, UniProt P12821); test: ACE inhibitory activity, HHL substrate, RP-HPLC of hippuric acid; assay type: biochemical; conditions: synthetic peptides, purity >95%; HHL 5 mM, borate pH 8.3, 0.3 M NaCl, 37°C, 45 min, ACE 50 mU/mL; RP-HPLC 228 nm; mean, n = 3
Protocol: This test was performed as per the descriptions are given by the previous report by [O’Loughlin et al. (2014)] with some modifications. Briefly, the substrate hippuryl-histidyl-leucine (HHL, 5 mM) and samples were mixed in 0.1 M Na2[B4O5(OH)4] (pH 8.3) with 0.3 M sodium chloride. Then after, 50 μL of sample and 150 μL of the substrate were added to a centrifuge tube, mixed and allowed to stand in water at 37°C for 5 min. Subsequently, the ACE solution (50 mU/mL) was added and incubated at 37°C for 45 min. The reaction was terminated by adding 250 μL of 1M HCl and the solution was filtered through […] nylon syringe filter before being analyzed by RP-HPLC (Waters, Milford, MA, United States) on an Inertsil ODS-3 (250 × 4.6 mm, 5 μm particle size). The mobile phase comprised of distilled water: acetonitrile = 75:25 (V/V, with 0.1% TFA) with a flow rate of 0.5 mL/min and detection at 228 nm. Captopril was used as a control and the inhibitory activity (%) was determined as below:
ACE inhibitory activity (%)=[(A−B)/A]×100
where A was the peak area of hippuric acid with the sample, B was without the sample.

[2] = target: T1, angiotensin converting enzyme (ACE); test: Kinetics of ACE inhibition, Lineweaver-Burk plot; assay type: biochemical; conditions: HHL 0.5, 1, 2, 5 mM, peptide 0, 15, 30 μM
Protocol: The kinetic inhibition model of G. biloba peptide was tested using the method of [Lin et al. (2017)]. Briefly, different concentrations of substrate HHL (0.5, 1, 2, and 5 mM) were allowed to react with ACE. The Lineweaver-Burk plot was based on the reciprocal of the reaction rate (1/v) and the substrate concentration (1/[s]). The intercepts on the X- and Y-axes represented the reciprocals of Km and Vmax, respectively.
FIGURE 5 The Lineweaver-Burk plot of the inhibitory effects on ACE activities of peptides. (A) TNLDWY, (B) RADFY, and (C) RVFDGAV. The ACE activities were determined in the absence and presence of different concentrations of the peptides (0, 15, and 30 μM).

[3] = tested on: ACE; conditions: 2017, cited from earlier work; for Inhibition mode: ref Lin et al.; for ACE inhibitory activity (in words): peptides containing hydrophobic amino acid (Leu), ref Lee and Hur
Description: According to report by [Hernández-Ledesma et al. (2011)], most of the ACE inhibiting peptides were short sequences consisting of 2–12 amino acids. In addition, the activity of the ACE-inhibiting peptide was strongly related to the pres ... || The mode of inhibition of ACE-inhibiting peptides was observed generally non-competitive, competitive, and mixed.

[4] = currently used blood pressure lowering drugs; ref Yu et al., 2018; cited from earlier work
Description: As per the World Health Organization estimate, CVD accounts for the mortality of more than 17.5 million people every year. Among the important characteristics of CVD, hypertension is an essential target for the prevention and treatment of CVD ([Celermajer et al., 2012]). […] Lately, signific ...

[5] = Qula casein and hazelnut peptides, Liu et al., 2018

T1 sequence (P12821 30-1306, species assumed): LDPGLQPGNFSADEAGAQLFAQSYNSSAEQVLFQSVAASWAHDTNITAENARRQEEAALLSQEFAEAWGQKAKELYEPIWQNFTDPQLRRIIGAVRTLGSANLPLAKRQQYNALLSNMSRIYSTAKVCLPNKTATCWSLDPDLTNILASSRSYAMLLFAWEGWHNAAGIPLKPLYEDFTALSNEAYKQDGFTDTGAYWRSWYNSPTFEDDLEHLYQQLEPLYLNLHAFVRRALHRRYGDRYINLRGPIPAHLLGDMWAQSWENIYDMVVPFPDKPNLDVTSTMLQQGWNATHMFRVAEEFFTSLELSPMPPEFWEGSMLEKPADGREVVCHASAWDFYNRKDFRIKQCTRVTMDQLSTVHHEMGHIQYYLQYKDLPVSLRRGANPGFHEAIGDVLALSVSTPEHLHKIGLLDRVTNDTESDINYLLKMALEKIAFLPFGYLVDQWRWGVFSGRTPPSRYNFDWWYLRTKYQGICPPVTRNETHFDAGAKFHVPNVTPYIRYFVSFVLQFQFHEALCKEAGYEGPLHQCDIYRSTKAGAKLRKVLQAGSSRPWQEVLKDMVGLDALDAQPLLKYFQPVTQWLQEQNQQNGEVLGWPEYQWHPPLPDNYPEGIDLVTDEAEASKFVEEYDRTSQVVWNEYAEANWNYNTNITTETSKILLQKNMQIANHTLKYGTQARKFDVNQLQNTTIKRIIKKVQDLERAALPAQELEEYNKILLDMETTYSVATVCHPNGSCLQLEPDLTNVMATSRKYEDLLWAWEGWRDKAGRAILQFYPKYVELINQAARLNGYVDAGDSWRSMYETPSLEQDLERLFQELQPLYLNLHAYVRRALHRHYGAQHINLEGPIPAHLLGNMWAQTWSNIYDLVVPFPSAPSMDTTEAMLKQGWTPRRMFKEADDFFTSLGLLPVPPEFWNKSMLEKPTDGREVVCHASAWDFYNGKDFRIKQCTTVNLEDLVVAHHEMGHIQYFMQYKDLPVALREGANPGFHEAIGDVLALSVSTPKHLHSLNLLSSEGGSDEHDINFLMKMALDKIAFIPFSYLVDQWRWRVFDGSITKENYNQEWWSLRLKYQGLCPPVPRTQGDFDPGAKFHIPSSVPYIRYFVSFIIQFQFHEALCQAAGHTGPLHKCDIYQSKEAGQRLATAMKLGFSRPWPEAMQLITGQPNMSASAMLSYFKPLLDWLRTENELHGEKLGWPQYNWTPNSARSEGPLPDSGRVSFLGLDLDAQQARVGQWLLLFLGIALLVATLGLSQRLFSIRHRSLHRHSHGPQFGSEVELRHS

- IC50 [1]: 1350 µM
Molecule: RADFY [RADFY, Arg-Ala-Asp-Phe-Tyr]
- Effect on Km [2]: Km increased with the increasing peptide concentration

Molecule: YLVR [hazelnut peptide]
- Inhibition mode [3, 5]: non-competitive

Molecule: PFPGPIPN
- Inhibition mode [3, 5]: non-competitive

- IC50 [1]: 1010 µM
Molecule: RVFDGAV [RVFDGAV, Arg-Val-Phe-Asp-Gly-Ala-Val]
- Effect on Km [2]: Km increased with the increasing peptide concentration

- IC50 [1]: 1930 µM
Molecule: TNLDWY [TNLDWY, Thr-Asn-Leu-Asp-Trp-Tyr]
- Effect on Km [2]: Km did not change significantly with peptide concentration

Molecule: C[C@H](CS)C(=O)N1CCC[C@H]1C(=O)O [captopril]
- Adverse reactions [4]: cough, rash, and headache

Molecule: KYIPIQ [peptide from Qula casein]
- Inhibition mode ([3]; peptides from Qula casein): competitive inhibition mode

Molecule: CCOC(=O)[C@H](CCc1ccccc1)N[C@@H](C)C(=O)N1CCC[C@H]1C(=O)O [enalapril]
- Adverse reactions [4]: cough, rash, and headache

Molecule: LPLPLL [peptide from Qula casein]
- Inhibition mode ([3]; peptides from Qula casein): competitive inhibition mode

Molecule: KPLL
- ACE inhibitory activity (in words) [3]: appreciable ACE inhibitory activity

Molecule: VLAQYK
- ACE inhibitory activity (in words) [3]: appreciable ACE inhibitory activity
